The values below are quoted from earlier work in US20250268832A1, “Pretomanid Compositions” (The Global Alliance for TB Drug Development, Inc., priority 2019, published 2025).

Data set [1] deals with Mycobacterium tuberculosis. As to conditions: background statement.
The conditions of data set [2]: poorly soluble.
Data set [3] deals with drug-resistant clinical isolates. Conditions: background statement.

Molecules are shown by their SMILES.

Consider `O=[N+]([O-])c1cn2c(n1)OC[C@@H](OCc1ccc(OC(F)(F)F)cc1)C2` [Pretomanid, (65)-2-nitro-6-{[4-(trifluoromethoxy)benzyl]oxy}-6,7,-dihydro-5H-imidazol[2.1b][1.3]oxazine], for which the activity in mice result in data set [1] is “potent bactericidal and sterilizing agent”. Besides, the “Biopharmaceutics Classification System (BCS) class” value in data set [2] is recorded as “Class II/IV”. Moreover, the “activity in vitro against drug-resistant clinical isolates” value in data set [3] is on record as “activity in vitro against all tested drug-resistant clinical isolates”.
